Common to all, as to assay: relative viability (nuclei count vs DMSO), 5 days (fraction); higher = more cells survive
Compound in assay [1]: C1CCC(CC1)N(CCNCCC2=C3C(=C(C=C2)O)NC(=O)CO3)C(=O)CCNCCC4=CC(=C(C=C4)Cl)Cl [AZ505] + CC(C)C[C@H](NC(=O)[C@H](Cc1ccccc1)NC(=O)c1cnccn1)B(O)O [Bortezomib] (partner 0.002 µM)
Put shortly: (§1)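 Relative viability is defined as nuclei in treated wells over nuclei in vehicle wells. Duplicate plates were run and medians reported. Lung cancer cell lines in 1536-well plates were dosed by pin tool one day after seeding, with one drug or with a fixed anchor-drug dose plus five library-drug doses (not always all listed) in √10 steps, and nuclei were counted after 5 days.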

Compound in assay [2]: C1CCC(CC1)N(CCNCCC2=C3C(=C(C=C2)O)NC(=O)CO3)C(=O)CCNCCC4=CC(=C(C=C4)Cl)Cl [AZ505] + C[C@@H](Oc1cc(-c2cnn(C3CCNCC3)c2)cnc1N)c1c(Cl)ccc(F)c1Cl [Crizotinib] (partner 1 µM)
A digest of the protocol: as §1

Compound in assay [3]: Cn1c(=O)n(-c2ccc(C(C)(C)C#N)cc2)c2c3cc(-c4cnc5ccccc5c4)ccc3ncc21 [Dactolisib] + CC(C)C[C@H](NC(=O)[C@H](Cc1ccccc1)NC(=O)c1cnccn1)B(O)O [Bortezomib] (partner 0.002 µM)
A digest of the protocol:
as §1

Compound in assay [4]: Cn1c(=O)n(-c2ccc(C(C)(C)C#N)cc2)c2c3cc(-c4cnc5ccccc5c4)ccc3ncc21 [Dactolisib] + NC(=O)Nc1cc(-c2cccc(F)c2)sc1C(=O)N[C@H]1CCCNC1 [AZD7762] (partner 0.2 µM)
Put shortly: as §1

For the cell line NCI-H2405, the relative viability in assay [1] (first compound 0.08 µM) is 0.733; in assay [1] (first compound 0.253 µM) it was 0.802; in assay [1] (first compound 0.8 µM), 0.81; in assay [1] (first compound 2.53 µM) it was 0.859; in assay [1] (first compound 8 µM), 0.925; in assay [2] (first compound 0.08 µM), 0.634. For the same cell line, the relative viability in assay [2] (first compound 0.253 µM) worked out at 0.596; in assay [2] (first compound 0.8 µM), 0.586; in assay [2] (first compound 2.53 µM) it was 0.565; in assay [2] (first compound 8 µM), 0.63; in assay [3] (first compound 0.002 µM), 1; in assay [3] (first compound 0.006325 µM), 0.97. Also, the relative viability amounted to 0.96 in assay [3] (first compound 0.02 µM); 0.892 in assay [3] (first compound 0.06325 µM); 0.628 in assay [3] (first compound 0.2 µM); 0.773 in assay [4] (first compound 0.002 µM); 0.768 in assay [4] (first compound 0.006325 µM); 0.674 in assay [4] (first compound 0.02 µM). Moreover, the relative viability was determined as 0.48 in assay [4] (first compound 0.06325 µM) and 0.253 in assay [4] (first compound 0.2 µM).

Take NCI-H322M: the relative viability in assay [1] (first compound 0.08 µM) was 1.29; in assay [1] (first compound 0.253 µM), 1.15; in assay [1] (first compound 0.8 µM) it was 1.39; in assay [1] (first compound 2.53 µM) it was 1.22; in assay [1] (first compound 8 µM) it was 1.34; in assay [2] (first compound 0.08 µM), 0.93. Further, the relative viability in assay [2] (first compound 0.253 µM) is 0.786; in assay [2] (first compound 0.8 µM), 0.878; in assay [2] (first compound 2.53 µM) it was 0.828; in assay [2] (first compound 8 µM) it was 0.931; in assay [3] (first compound 0.002 µM) it was 1.21; in assay [3] (first compound 0.006325 µM), 1.24. For the same cell line, the relative viability turned out to be 1.13 in assay [3] (first compound 0.02 µM); 1.07 in assay [3] (first compound 0.06325 µM); 0.838 in assay [3] (first compound 0.2 µM); 0.524 in assay [4] (first compound 0.002 µM); 0.547 in assay [4] (first compound 0.006325 µM); 0.424 in assay [4] (first compound 0.02 µM). Moreover, the relative viability in assay [4] (first compound 0.06325 µM) was 0.425; in assay [4] (first compound 0.2 µM), 0.408.

In the case of NCI-H838, the relative viability in assay [1] (first compound 0.08 µM) was 0.805; in assay [1] (first compound 0.253 µM), 0.609; in assay [1] (first compound 0.8 µM) it was 0.761; in assay [1] (first compound 2.53 µM), 0.564; in assay [1] (first compound 8 µM) it was 0.884; in assay [2] (first compound 0.08 µM), 0.773. The relative viability in assay [2] (first compound 0.253 µM) was determined as 0.841; in assay [2] (first compound 0.8 µM), 0.809; in assay [2] (first compound 2.53 µM) it was 0.824; in assay [2] (first compound 8 µM) it was 0.743; in assay [3] (first compound 0.002 µM), 0.852; in assay [3] (first compound 0.006325 µM) it was 0.725. In addition, the relative viability in assay [3] (first compound 0.02 µM) came to 0.434; in assay [3] (first compound 0.06325 µM) it was 0.22; in assay [3] (first compound 0.2 µM), 0.242; in assay [4] (first compound 0.002 µM), 0.845; in assay [4] (first compound 0.006325 µM), 0.908; in assay [4] (first compound 0.02 µM), 0.843. In addition, the relative viability in assay [4] (first compound 0.06325 µM) stood at 0.709; in assay [4] (first compound 0.2 µM) it was 0.633.

As to CAL-12T, the relative viability worked out at 0.946 in assay [1] (first compound 0.08 µM); 0.82 in assay [1] (first compound 0.253 µM); 0.835 in assay [1] (first compound 0.8 µM); 0.936 in assay [1] (first compound 2.53 µM); 1.01 in assay [1] (first compound 8 µM); 0.599 in assay [2] (first compound 0.08 µM). In addition, the relative viability is 0.753 in assay [2] (first compound 0.253 µM); 0.535 in assay [2] (first compound 0.8 µM); 0.684 in assay [2] (first compound 2.53 µM); 0.563 in assay [2] (first compound 8 µM); 1.05 in assay [3] (first compound 0.002 µM); 1.13 in assay [3] (first compound 0.006325 µM). Further, the relative viability in assay [3] (first compound 0.02 µM) was 0.825; in assay [3] (first compound 0.06325 µM), 0.721; in assay [3] (first compound 0.2 µM), 0.338; in assay [4] (first compound 0.002 µM), 0.573; in assay [4] (first compound 0.006325 µM), 0.691; in assay [4] (first compound 0.02 µM) it was 0.638. Also, the relative viability in assay [4] (first compound 0.06325 µM) was found to be 0.424; in assay [4] (first compound 0.2 µM) it was 0.357.

These data come from the supplement of paper PMC10307832.
